Measured values from article PMC11202169, “A Novel Fluorescence-Based Microplate Assay for High-Throughput Screening of hSULT1As Inhibitors” (Biosensors, 2024).
Several values for one entry are separate records, joined by “and”; a condition that tells them apart may be missing. Equal entries are not always repeated. Where two headings read alike, the source gives them in different places.

How the values were obtained:
Format in all cases: biochemical
[1] = target: T1, hSULT1A2 (Homo sapiens, UniProt P50226); assay: Fluorescence-based microplate inhibition assay, hSULT1A2-catalyzed HN-241 4-O-sulfation; details: for remaining activity at 10 µM: 0.25 h, read-out: Residue activity (%) hSULT1A2
T1 construct: 6-histidine tag (N); TEV site (N); made in house; host or cells: Escherichia coli BL21 (DE3), pET29a(+)

[2] = target: T2, hSULT1A3 (Homo sapiens, UniProt P0DMM9); assay: Fluorescence-based microplate inhibition assay, hSULT1A3-catalyzed HN-241 4-O-sulfation; details: for activity at 10 µM: read-out: Residue activity (%) hSULT1A3; for IC50: hSULT1A3-catalyzed HN-241 4-O-sulfation
T2 construct: 6-histidine tag (N); TEV site (N); made in house; host or cells: Escherichia coli BL21 (DE3), pET29a(+)

[3] = target: T3, hSULT1A1 (Homo sapiens, UniProt P50225); assay: Fluorescence-based microplate inhibition assay, hSULT1A1-catalyzed HN-241 4-O-sulfation; details: for activity at 1 µM: read-out: Residue activity (%) hSULT1A1; for IC50: hSULT1A1-catalyzed HN-241 4-O-sulfation;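 on all read-outs here: reaction started with 200 µM PAPS at 37 °C, fluorescence read continuously (Ex 350 nm, Em 450 nm), activity expressed relative to DMSO-only control without inhibitor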
T3 construct: 6-histidine tag (N); TEV site (N); made in house; host or cells: Escherichia coli BL21 (DE3), pET29a(+)

[4] = test compound 10 μM, HN-241 5 μM, 15 min
[5] = test compound 10 μM, HN-241 10 μM, 15 min
[6] = test compound 1 μM, HN-241 1 μM, 15 min
[7] = hSULT1A2-catalyzed HN-241 4-O-sulfation

T1 sequence (P50226 whole entry): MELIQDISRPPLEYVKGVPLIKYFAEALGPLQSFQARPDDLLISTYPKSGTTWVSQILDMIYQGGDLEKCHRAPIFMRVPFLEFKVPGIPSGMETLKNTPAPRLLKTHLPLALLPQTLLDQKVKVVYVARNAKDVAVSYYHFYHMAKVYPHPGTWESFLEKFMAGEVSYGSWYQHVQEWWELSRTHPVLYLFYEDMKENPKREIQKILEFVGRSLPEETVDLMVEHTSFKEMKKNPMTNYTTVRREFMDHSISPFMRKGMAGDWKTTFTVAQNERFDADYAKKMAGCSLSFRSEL
T3 sequence (P50225 whole entry): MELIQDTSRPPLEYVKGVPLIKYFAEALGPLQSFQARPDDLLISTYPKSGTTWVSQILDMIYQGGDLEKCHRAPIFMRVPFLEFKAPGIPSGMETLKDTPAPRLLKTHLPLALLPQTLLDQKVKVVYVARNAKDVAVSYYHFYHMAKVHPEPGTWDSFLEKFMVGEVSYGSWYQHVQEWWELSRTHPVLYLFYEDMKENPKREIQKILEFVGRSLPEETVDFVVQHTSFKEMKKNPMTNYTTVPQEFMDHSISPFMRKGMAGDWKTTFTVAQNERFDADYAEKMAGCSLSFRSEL
T2 sequence (P0DMM9 whole entry): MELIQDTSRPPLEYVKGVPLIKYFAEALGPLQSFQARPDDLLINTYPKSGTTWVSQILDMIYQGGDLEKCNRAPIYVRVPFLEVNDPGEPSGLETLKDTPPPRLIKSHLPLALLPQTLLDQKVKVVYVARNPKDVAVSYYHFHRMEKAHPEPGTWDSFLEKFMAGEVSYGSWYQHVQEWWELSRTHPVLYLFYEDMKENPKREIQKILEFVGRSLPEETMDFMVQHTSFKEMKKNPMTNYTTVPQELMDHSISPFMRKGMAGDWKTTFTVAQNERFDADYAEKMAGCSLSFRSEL

Structure (SMILES) | remaining activity at 10 µM [1, 4] | activity at 10 µM [2, 5] | activity at 1 µM [3, 6] | Residue activity (%) hSULT1A2 [1, 4] | Residue activity (%) hSULT1A3 [2, 5] | Residue activity (%) hSULT1A1 [3, 6] | also measured
CC(C)=CCC[C@](C)(O)[C@H]1CC[C@]2(C)[C@@H]1[C@H](O)C[C@@H]1[C@@]3(C)CC[C@H](O)C(C)(C)[C@@H]3CC[C@]12C [(20S)-Protopanaxdiol] |  |  |  | 95.73% | 81.62% | 99.75% | 
O=C(/C=C/C=C/c1ccccc1)CCc1ccccc1 [Alnustone] |  |  |  | 80.60% | 111.42% | 74.39% | 
O=C1c2cccc(O)c2C(=O)c2c(O)cc(CO)cc21 [Aloeemodin] | 0% | 61.3% | 0.21% |  |  |  | IC50 [1, 7]: 118 ± 7.2 nM
COc1cc(O)cc2c1C(=O)C[C@@H](c1ccccc1)O2 [Alpinetin] | 49.5% | 115% | 69.8% |  |  |  | 
O=C1CCC[C@@H]2[C@H]3CCC[N@+]4([O-])CCC[C@@H](CN12)[C@@H]34 [Ammothamnine] |  |  |  | 96.56% | 100.34% | 99.18% | 
COc1c(O)cc2c(c1O)C(=O)c1c(cc(C)c(O)c1OC)C2=O [Aurantio-obtusin] | 0% | 45.2% | 0.45% |  |  |  | IC50 [1, 7]: 492 ± 15.2 nM
C[C@]12CC[C@H](O)C[C@H]1CC[C@@H]1[C@@H]2CC[C@]2(C)[C@@H](c3ccc(=O)oc3)CC[C@]12O [Bufalin] |  |  |  |  |  |  | remaining activity at 10 µM [1]: 106%; activity at 10 µM [2]: 124%; activity at 1 µM [3]: 103%
COc1ccc(-c2coc3cc(O[C@@H]4O[C@H](CO)[C@@H](O)[C@H](O)[C@H]4O)ccc3c2=O)cc1O [Calycosin-7-O-β-D-glucoside] |  |  |  | 22.81% | 54.16% | 2.77% | 
COc1cc(O)cc(O)c1C(=O)/C=C/c1ccccc1 [Cardamonin] |  |  |  | 34.41% and 31.76% | 120.65% and 88.76% | 63.24% and 71.38% | 
C[C@H](CCC(=O)O)[C@H]1CC[C@H]2[C@@H]3[C@H](O)C[C@@H]4C[C@H](O)CC[C@]4(C)[C@H]3CC[C@]12C [Chenodeoxycholic acid] | 98.2% | 129% | 96.5% |  |  |  | 
COc1cc2c(c(OC)c1OC)C(=O)c1c(cc(C)c(O)c1OC)C2=O [Chrysoobtusin] | 0.09% | 5.28% | 1.84% |  |  |  | IC50 [2]: 1520 ± 79.1 nM
Cc1cc(O)c2c(c1)C(=O)c1cccc(O)c1C2=O [Chrysophanic acid] | 45.4% | 99.3% | 3.52% |  |  |  | 
C[C@H]1C(=O)O[C@@H]2CCN3CC=C(COC(=O)[C@](C)(O)[C@]1(C)O)[C@H]23 [Crotaline] |  |  |  | 97.30% | 122.18% | 128.03% | 
COc1ccc(-c2cc(=O)c3c(O)cc(O)cc3o2)cc1O [Diosmetin] | 57% | 39.1% | 0% |  |  |  | 
COc1cc(O)c2c(c1)C(=O)c1cc(C)cc(O)c1C2=O [Emodin-3-methyl ether] |  |  |  | 89.81% | 103.18% | 54.41% | 
Cc1cc(O)c2c(c1)C(=O)c1cc(O)cc(O)c1C2=O [Emodin] | 0% | 65% | 0% |  |  |  | IC50 [1, 7]: 360 ± 22.6 nM; IC50 [3]: 76.5 ± 5.28 nM
COc1ccc(-c2oc3c(CC=C(C)C)c(O[C@@H]4O[C@H](CO)[C@@H](O)[C@H](O)[C@H]4O)cc(O)c3c(=O)c2O[C@@H]2O[C@@H](C)[C@H](O)[C@@H](O)[C@H]2O[C@@H]2O[C@@H](C)[C@H](O)[C@@H](O)[C@H]2O)cc1 [Epimedin C] |  |  |  | 95.77% | 107.48% | 108.62% | 
CC(C)=CC/C=C(/C)[C@H]1CC[C@]2(C)[C@@H]1[C@H](O)C[C@@H]1[C@@]3(C)CC[C@H](O)C(C)(C)[C@@H]3[C@@H](O[C@@H]3O[C@H](CO)[C@@H](O)[C@H](O)[C@H]3O[C@@H]3O[C@@H](C)[C@H](O)[C@@H](O)[C@H]3O)C[C@]12C [Ginsenoside F4] |  |  |  | 89.89% | 99.83% | 99.89% | 
CC(C)=CCC[C@](C)(O)[C@H]1CC[C@]2(C)[C@@H]1[C@H](O)C[C@@H]1[C@@]3(C)CC[C@H](O)C(C)(C)[C@@H]3[C@@H](O[C@@H]3O[C@H](CO)[C@@H](O)[C@H](O)[C@H]3O[C@@H]3O[C@H](CO)[C@@H](O)[C@H](O)[C@H]3O)C[C@]12C [Ginsenoside Rf] | 104% | 104% | 102% |  |  |  | 
CC(C)=CCC[C@](C)(O)[C@H]1CC[C@]2(C)[C@@H]1[C@H](O)C[C@@H]1[C@@]3(C)CC[C@H](O)C(C)(C)[C@@H]3[C@@H](O[C@@H]3O[C@H](CO)[C@@H](O)[C@H](O)[C@H]3O[C@@H]3O[C@@H](C)[C@H](O)[C@@H](O)[C@H]3O)C[C@]12C [Ginsenoside Rg2] | 106% | 100% | 113% |  |  |  | 
C=C(CCC=C(C)C)[C@H]1CC[C@]2(C)[C@@H]1[C@H](O)C[C@@H]1[C@@]3(C)CC[C@H](O)C(C)(C)[C@@H]3[C@@H](O[C@@H]3O[C@H](CO)[C@@H](O)[C@H](O)[C@H]3O[C@@H]3O[C@@H](C)[C@H](O)[C@@H](O)[C@H]3O)C[C@]12C [Ginsenoside Rg6] |  |  |  | 103.59% | 124.68% | 100.32% | 
CC(C)=CCC[C@](C)(O)[C@H]1CC[C@]2(C)[C@@H]1[C@H](O)C[C@@H]1[C@@]3(C)CC[C@H](O)C(C)(C)[C@@H]3[C@@H](O[C@@H]3O[C@H](CO)[C@@H](O)[C@H](O)[C@H]3O)C[C@]12C [Ginsenoside Rh1] | 96.5% | 100% | 114% |  |  |  | 
C=C(CCC=C(C)C)[C@H]1CC[C@]2(C)[C@@H]1[C@H](O)C[C@@H]1[C@@]3(C)CC[C@H](O[C@@H]4O[C@H](CO)[C@@H](O)[C@H](O)[C@H]4O)C(C)(C)[C@@H]3CC[C@]12C [Ginsenoside Rk2] |  |  |  | 106.88% | 94.83% | 97.02% | 
COc1cc2c(=O)c(-c3ccc(O)cc3)coc2cc1O[C@@H]1O[C@H](CO)[C@@H](O)[C@H](O)[C@H]1O [Glycitin] |  |  |  | 97.40% | 114.83% | 98.37% | 
COc1ccc(-c2oc3c(CC=C(C)C)c(O[C@@H]4O[C@H](CO)[C@@H](O)[C@H](O)[C@H]4O)cc(O)c3c(=O)c2O)cc1 [Icariside I] |  |  |  | 103.62% | 104.97% | 91.81% | 
CC(C)=CCOc1c2occc2cc2ccc(=O)oc12 [Imperatorin] | 94.3% | 128% | 101% |  |  |  | 
CC(C)Oc1ccc2c(=O)c(-c3ccccc3)coc2c1 [Ipriflavone] | 89.5% | 117% | 61.3% |  |  |  | 

Continued, in another order:

remaining activity at 10 µM [1, 4] | activity at 10 µM [2, 5] | activity at 1 µM [3, 6] | Structure (SMILES) | Residue activity (%) hSULT1A2 [1, 4] | Residue activity (%) hSULT1A3 [2, 5] | Residue activity (%) hSULT1A1 [3, 6] | also measured
101% | 46.8% | 41.4% | Oc1cc(O)c2c(c1)O[C@@H](c1ccc(O)c(O)c1)[C@H](O)C2 [(-)-Catechin] |  |  |  | 
0.47% | 58.1% | 0.38% | COc1ccc(-c2cc(=O)c3c(O)cc(O)cc3o2)cc1 [Acacetin] |  |  |  | 
0% | 42.3% | 24% | COc1ccc(-c2cc(=O)c3c(O)cc(O)cc3o2)cc1-c1c(O)cc(O)c2c(=O)cc(-c3ccc(O)cc3)oc12 [Bilobetin] |  |  |  | IC50 [1, 7]: 55.5 ± 1.3 nM; Inhibition manner ([1]; inhibition kinetic assay, hSULT1A2-catalyzed HN-241 4-O-sulfation): mixed inhibition
111% | 121% | 106% | C=C(C)[C@@H]1CC[C@]2(C(=O)O)CC[C@]3(C)[C@H](CC[C@@H]4[C@@]5(C)CC[C@@H](O)C(C)(C)[C@@H]5CC[C@]43C)[C@@H]12 [Epibetulinic acid] |  |  |  | 
111% | 104% | 65.5% | C[C@@H]1O[C@@H](OC[C@H]2O[C@@H](Oc3cc(O)c4c(c3)O[C@H](c3ccc(O)c(O)c3)CC4=O)[C@H](O)[C@@H](O)[C@@H]2O)[C@H](O)[C@H](O)[C@H]1O [Eriocitrin] |  |  |  | 
112% | 121% | 106% | CC1(C)[C@@H](O[C@H]2O[C@H](C(=O)O)[C@@H](O)[C@H](O)[C@H]2O[C@@H]2O[C@H](C(=O)O)[C@@H](O)[C@H](O)[C@H]2O)CC[C@]2(C)[C@H]3C(=O)C=C4[C@@H]5C[C@@](C)(C(=O)O)CC[C@]5(C)CC[C@@]4(C)[C@]3(C)CC[C@@H]12 [Glycyrrhizic acid] |  |  |  | 
0% | 9.46% | 0% | O=c1cc(-c2ccc(Oc3c(O)cc4oc(-c5ccc(O)cc5)cc(=O)c4c3O)cc2)oc2cc(O)cc(O)c12 [Hinokiflavone] |  |  |  | IC50 [1, 7]: 110 ± 14.7 nM; IC50 [2]: 2130 ± 182 nM; IC50 [3]: 18.9 ± 1.17 nM
85.1% | 105% | 85.5% | COc1ccc(-c2oc3c(CC=C(C)C)c(O[C@@H]4O[C@H](CO)[C@@H](O)[C@H](O)[C@H]4O)cc(O)c3c(=O)c2O[C@@H]2O[C@@H](C)[C@H](O)[C@@H](O)[C@H]2O)cc1 [Icariin] |  |  |  | 
